Results as given in ChEMBL document CHEMBL1201862, “PubChem BioAssay data set” (2004).
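48-hour exposure; five concentrations; linearly interpolated endpoints. GI50 marks 50% less growth.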 Activity calls are given as the source filed them. No stated cut-off is given here; in the data, active = GI50 up to about 1.1 µM and inactive = higher.

How the values were obtained:
Experiment in all cases: NCI tumour cell line growth inhibition, 48 h
SK-MEL-2 = test system: SK-MEL-2
SF-539 = test system: SF-539
UACC-62 = test system: UACC-62
SNB-75 = test system: SNB-75
A549 = test system: A549
SF-268 = test system: SF-268
HCC 2998 = test system: HCC 2998
MCF7 = test system: MCF7
KM12 = test system: KM12
UO-31 = test system: UO-31
MDA-MB-231 = test system: MDA-MB-231
EKVX = test system: EKVX
OVCAR-5 = test system: OVCAR-5
SNB-19 = test system: SNB-19
A498 = test system: A498
NCI/ADR-RES = test system: NCI/ADR-RES
HCT-15 = test system: HCT-15
CAKI-1 = test system: CAKI-1
SF-295 = test system: SF-295
M14 = test system: M14

SMILES	GI50 (SK-MEL-2)	GI50 (SF-539)	GI50 (UACC-62)	GI50 (SNB-75)	GI50 (A549)	GI50 (SF-268)	GI50 (HCC 2998)	GI50 (MCF7)	GI50 (KM12)	GI50 (UO-31)	GI50 (MDA-MB-231)	GI50 (EKVX)	GI50 (OVCAR-5)	GI50 (SNB-19)	GI50 (A498)	GI50 (NCI/ADR-RES)	GI50 (HCT-15) [µM]	GI50 (CAKI-1)	GI50 (SF-295)	GI50 (M14)
O=Nc1ccc(O)c2ncccc12	2.21 µM (inactive)	1.44 µM (inactive)	0.875 µM (active)	2.51 µM (inactive)	2.5 µM (inactive)	3.68 µM (inactive)	15.6 µM (inactive)	1.76 µM (inactive)	5.19 µM (inactive)	2.98 µM (inactive)	6.43 µM (inactive)	0.525 µM (active)	15.7 µM (inactive)	16 µM (inactive)	18.5 µM (inactive)	3.85 µM (inactive)	2.52	16.3 µM (inactive)	8.05 µM (inactive)	6.03 µM (inactive)
CCOC(=O)C1(C(C)=O)OC(=O)c2cnccc21 (stereo not given)	> 100 µM (inactive)	> 100 µM (inactive)	> 100 µM (inactive)	> 100 µM (inactive)	> 100 µM (inactive)	> 100 µM (inactive)	> 100 µM (inactive)	> 100 µM (inactive)	> 100 µM (inactive)	> 100 µM (inactive)	> 100 µM (inactive)	> 100 µM (inactive)	> 100 µM (inactive)	> 100 µM (inactive)	> 100 µM (inactive)	> 100 µM (inactive)	> 100	> 100 µM (inactive)	> 100 µM (inactive)	> 100 µM (inactive)
C=CC(OC(=O)C(C)C)c1ccc(OC(=O)C(C)C)cc1 (stereo not given)	11.2 µM (inactive)	17 µM (inactive)	15.8 µM (inactive)	15 µM (inactive)	19.5 µM (inactive)	26.2 µM (inactive)	13.1 µM (inactive)	3.3 µM (inactive)	2.21 µM (inactive)	17.2 µM (inactive)	16.4 µM (inactive)	22.4 µM (inactive)	6.5 µM (inactive)	14.9 µM (inactive)	17.6 µM (inactive)	14.2 µM (inactive)	5.74	2.56 µM (inactive)	15.6 µM (inactive)	7.67 µM (inactive)
c1ccc(P2c3ccccc3Nc3ccccc32)cc1	36 µM (inactive)	59.8 µM (inactive)	37.8 µM (inactive)	11.4 µM (inactive)	42.5 µM (inactive)	71.6 µM (inactive)	> 100 µM (inactive)	72.1 µM (inactive)	37.2 µM (inactive)	> 100 µM (inactive)	35.3 µM (inactive)	34 µM (inactive)	> 100 µM (inactive)	59 µM (inactive)	27.1 µM (inactive)	> 100 µM (inactive)	> 100	23.5 µM (inactive)	59.7 µM (inactive)	66.2 µM (inactive)
COc1ccc(C2=NN(C(=O)c3ccc(Cl)cc3)C(O)(c3cc(F)c(Cl)cc3Cl)C2)cc1 (stereo not given)	21.7 µM (inactive)	> 100 µM (inactive)	> 100 µM (inactive)	15 µM (inactive)	49.2 µM (inactive)	> 100 µM (inactive)	43.5 µM (inactive)	19 µM (inactive)	24.5 µM (inactive)	16.9 µM (inactive)	> 100 µM (inactive)	6.04 µM (inactive)	> 100 µM (inactive)	> 100 µM (inactive)	71.6 µM (inactive)	48.3 µM (inactive)	28.1	27.4 µM (inactive)	> 100 µM (inactive)	44.8 µM (inactive)
CC[N+]1(C)CCC(O)(c2ccccc2)C(C(=O)c2ccccc2)C1 (stereo not given)	18.7 µM (inactive)	16.7 µM (inactive)	19 µM (inactive)	12.6 µM (inactive)	16 µM (inactive)	23.6 µM (inactive)	34 µM (inactive)	2.73 µM (inactive)	19.2 µM (inactive)	18.7 µM (inactive)	17.2 µM (inactive)	21.1 µM (inactive)	17.9 µM (inactive)	15.5 µM (inactive)	16.1 µM (inactive)	29.6 µM (inactive)	9.73	4.14 µM (inactive)	19 µM (inactive)	9.71 µM (inactive)
CN(C)CCCC12CCCCC1=Nc1ccccc12 (stereo not given)	> 100 µM (inactive)	> 100 µM (inactive)	> 100 µM (inactive)	> 100 µM (inactive)	> 100 µM (inactive)	> 100 µM (inactive)	> 100 µM (inactive)	> 100 µM (inactive)	> 100 µM (inactive)	> 100 µM (inactive)	> 100 µM (inactive)	> 100 µM (inactive)	> 100 µM (inactive)	> 100 µM (inactive)	> 100 µM (inactive)	> 100 µM (inactive)	> 100	> 100 µM (inactive)	> 100 µM (inactive)	> 100 µM (inactive)
SC1=Nc2ccccc2-c2nc(-c3cccc(Cl)c3)cc(-c3ccccc3)c2C1	5.25 µM (inactive)	1.69 µM (inactive)	1.61 µM (inactive)	1.83 µM (inactive)	1.75 µM (inactive)	3.79 µM (inactive)	3.24 µM (inactive)	5.04 µM (inactive)	4.53 µM (inactive)	1.93 µM (inactive)	1.64 µM (inactive)	3.54 µM (inactive)	5.77 µM (inactive)	1.2 µM (inactive)	2.02 µM (inactive)	2.04 µM (inactive)	7.08	2 µM (inactive)	3.37 µM (inactive)	4.61 µM (inactive)
